Source: ChEMBL document CHEMBL2074434, “Interaction of cytochrome P450 3A inhibitors with P-glycoprotein” (J Pharmacol Exp Ther, 2002)

Columns and labels:
[1] = molecular target: T1, ATP-dependent translocase ABCB1 (Mus musculus, UniProt P21447); assay: TP_TRANSPORTER: increase in Calcein-AM intracellular accumulation in mdr1a-expressing LLC-PK1 cells; assay type: functional, cell-based
[2] = molecular target: ATP-dependent translocase ABCB1 (Mus musculus, UniProt P06795); assay: TP_TRANSPORTER: increase in Calcein-AM intracellular accumulation in mdr1b-expressing LLC-PK1 cells; assay type: functional, cell-based
[3] = molecular target: ATP-dependent translocase ABCB1 (Homo sapiens, UniProt P08183); assay: TP_TRANSPORTER: transepithelial transport (basal to apical) in MDR1-expressing LLC-PK1 cells; assay type: functional, cell-based; conditions: pig
[4] = molecular target: T1, ATP-dependent translocase ABCB1; assay: TP_TRANSPORTER: increase in kidney concentration in mdr1a(-/-) mouse; assay type: functional, organism-based; conditions: in vivo
[5] = molecular target: T1, ATP-dependent translocase ABCB1; assay: TP_TRANSPORTER: transepithelial transport (basal to apical) in mdr1a-expressing LLC-PK1 cell; assay type: functional, cell-based; conditions: pig
[6] = molecular target: T1, ATP-dependent translocase ABCB1; assay: TP_TRANSPORTER: no influence on tissue distribution in mdr1a(-/-) mouse; assay type: functional, organism-based; conditions: in vivo
[7] = molecular target: T1, ATP-dependent translocase ABCB1; assay: TP_TRANSPORTER: increase in spleen concentration in mdr1a(-/-) mouse; assay type: functional, organism-based; conditions: in vivo
[8] = molecular target: T1, ATP-dependent translocase ABCB1; assay: TP_TRANSPORTER: increase in lung concentration in mdr1a(-/-) mouse; assay type: functional, organism-based; conditions: in vivo
[9] = molecular target: T1, ATP-dependent translocase ABCB1; assay: TP_TRANSPORTER: increase in liver concentration in mdr1a(-/-) mouse; assay type: functional, organism-based; conditions: in vivo
[10] = molecular target: T1, ATP-dependent translocase ABCB1; assay: TP_TRANSPORTER: increase in heart concentration in mdr1a(-/-) mouse; assay type: functional, organism-based; conditions: in vivo

T1 sequence (P21447 whole entry): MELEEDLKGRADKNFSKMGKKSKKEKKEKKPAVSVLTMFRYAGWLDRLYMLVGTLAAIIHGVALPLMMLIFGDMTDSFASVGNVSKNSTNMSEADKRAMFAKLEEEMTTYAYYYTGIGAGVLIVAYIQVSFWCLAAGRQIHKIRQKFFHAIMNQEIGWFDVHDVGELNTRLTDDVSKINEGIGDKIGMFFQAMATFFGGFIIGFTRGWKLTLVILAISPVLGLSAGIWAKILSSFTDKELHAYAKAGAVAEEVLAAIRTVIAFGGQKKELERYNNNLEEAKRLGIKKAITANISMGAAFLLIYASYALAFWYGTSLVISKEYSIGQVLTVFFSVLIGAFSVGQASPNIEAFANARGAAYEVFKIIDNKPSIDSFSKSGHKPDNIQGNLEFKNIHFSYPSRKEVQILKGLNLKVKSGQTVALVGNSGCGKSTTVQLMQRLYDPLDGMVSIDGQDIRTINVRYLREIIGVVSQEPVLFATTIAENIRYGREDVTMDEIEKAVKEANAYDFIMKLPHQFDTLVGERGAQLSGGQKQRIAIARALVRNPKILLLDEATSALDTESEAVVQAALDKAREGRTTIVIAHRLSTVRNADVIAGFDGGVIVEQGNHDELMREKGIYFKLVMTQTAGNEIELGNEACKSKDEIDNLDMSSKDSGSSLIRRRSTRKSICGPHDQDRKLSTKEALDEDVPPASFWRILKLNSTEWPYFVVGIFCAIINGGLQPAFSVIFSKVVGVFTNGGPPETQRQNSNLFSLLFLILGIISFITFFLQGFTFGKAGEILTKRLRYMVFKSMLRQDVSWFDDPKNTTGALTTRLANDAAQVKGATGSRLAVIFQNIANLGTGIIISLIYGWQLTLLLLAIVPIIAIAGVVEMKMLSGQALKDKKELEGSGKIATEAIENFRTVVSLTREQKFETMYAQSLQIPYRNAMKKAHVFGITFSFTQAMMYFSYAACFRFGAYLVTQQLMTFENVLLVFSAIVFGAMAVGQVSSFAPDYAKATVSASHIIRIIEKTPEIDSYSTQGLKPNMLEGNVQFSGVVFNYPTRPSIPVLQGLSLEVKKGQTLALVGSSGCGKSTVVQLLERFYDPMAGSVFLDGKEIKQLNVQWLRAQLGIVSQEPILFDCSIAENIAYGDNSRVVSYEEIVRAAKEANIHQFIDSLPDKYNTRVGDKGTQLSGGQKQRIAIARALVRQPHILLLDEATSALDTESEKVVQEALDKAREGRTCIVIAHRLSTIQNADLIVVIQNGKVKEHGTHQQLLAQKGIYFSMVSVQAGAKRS
Sequence of ATP-dependent translocase ABCB1 (Mus musculus, UniProt P06795) (P06795 whole entry): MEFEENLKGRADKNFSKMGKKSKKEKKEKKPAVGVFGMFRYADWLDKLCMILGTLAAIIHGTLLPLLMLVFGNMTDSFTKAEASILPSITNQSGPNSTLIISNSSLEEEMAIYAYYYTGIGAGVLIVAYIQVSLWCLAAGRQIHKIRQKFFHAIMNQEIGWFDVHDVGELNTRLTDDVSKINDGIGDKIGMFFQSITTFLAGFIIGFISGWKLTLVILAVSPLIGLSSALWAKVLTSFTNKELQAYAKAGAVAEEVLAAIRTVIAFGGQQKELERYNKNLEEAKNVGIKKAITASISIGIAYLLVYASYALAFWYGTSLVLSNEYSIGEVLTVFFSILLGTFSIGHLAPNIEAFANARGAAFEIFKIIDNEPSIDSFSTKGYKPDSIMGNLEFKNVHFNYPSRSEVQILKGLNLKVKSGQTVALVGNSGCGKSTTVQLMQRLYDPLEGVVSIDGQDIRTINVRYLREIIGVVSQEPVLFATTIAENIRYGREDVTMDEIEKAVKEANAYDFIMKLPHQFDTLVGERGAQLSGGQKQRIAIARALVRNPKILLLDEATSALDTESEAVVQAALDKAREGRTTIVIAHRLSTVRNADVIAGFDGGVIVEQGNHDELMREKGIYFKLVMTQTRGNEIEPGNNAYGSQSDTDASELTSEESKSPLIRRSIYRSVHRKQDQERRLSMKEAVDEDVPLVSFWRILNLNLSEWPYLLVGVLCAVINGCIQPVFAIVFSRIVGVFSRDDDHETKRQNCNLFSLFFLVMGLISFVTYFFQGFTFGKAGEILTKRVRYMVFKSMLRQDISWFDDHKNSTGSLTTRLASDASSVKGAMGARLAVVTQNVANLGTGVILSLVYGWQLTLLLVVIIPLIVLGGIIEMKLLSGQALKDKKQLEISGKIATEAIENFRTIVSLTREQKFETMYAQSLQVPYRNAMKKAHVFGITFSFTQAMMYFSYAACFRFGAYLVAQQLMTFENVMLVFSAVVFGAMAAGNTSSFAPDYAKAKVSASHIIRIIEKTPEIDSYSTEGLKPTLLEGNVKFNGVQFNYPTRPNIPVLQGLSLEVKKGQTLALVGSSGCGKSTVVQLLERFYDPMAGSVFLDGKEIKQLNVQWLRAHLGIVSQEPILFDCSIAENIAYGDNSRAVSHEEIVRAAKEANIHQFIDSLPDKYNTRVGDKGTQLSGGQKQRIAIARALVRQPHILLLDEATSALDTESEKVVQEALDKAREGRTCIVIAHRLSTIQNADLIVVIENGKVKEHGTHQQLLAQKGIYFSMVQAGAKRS
Sequence of ATP-dependent translocase ABCB1 (Homo sapiens, UniProt P08183) (P08183 whole entry): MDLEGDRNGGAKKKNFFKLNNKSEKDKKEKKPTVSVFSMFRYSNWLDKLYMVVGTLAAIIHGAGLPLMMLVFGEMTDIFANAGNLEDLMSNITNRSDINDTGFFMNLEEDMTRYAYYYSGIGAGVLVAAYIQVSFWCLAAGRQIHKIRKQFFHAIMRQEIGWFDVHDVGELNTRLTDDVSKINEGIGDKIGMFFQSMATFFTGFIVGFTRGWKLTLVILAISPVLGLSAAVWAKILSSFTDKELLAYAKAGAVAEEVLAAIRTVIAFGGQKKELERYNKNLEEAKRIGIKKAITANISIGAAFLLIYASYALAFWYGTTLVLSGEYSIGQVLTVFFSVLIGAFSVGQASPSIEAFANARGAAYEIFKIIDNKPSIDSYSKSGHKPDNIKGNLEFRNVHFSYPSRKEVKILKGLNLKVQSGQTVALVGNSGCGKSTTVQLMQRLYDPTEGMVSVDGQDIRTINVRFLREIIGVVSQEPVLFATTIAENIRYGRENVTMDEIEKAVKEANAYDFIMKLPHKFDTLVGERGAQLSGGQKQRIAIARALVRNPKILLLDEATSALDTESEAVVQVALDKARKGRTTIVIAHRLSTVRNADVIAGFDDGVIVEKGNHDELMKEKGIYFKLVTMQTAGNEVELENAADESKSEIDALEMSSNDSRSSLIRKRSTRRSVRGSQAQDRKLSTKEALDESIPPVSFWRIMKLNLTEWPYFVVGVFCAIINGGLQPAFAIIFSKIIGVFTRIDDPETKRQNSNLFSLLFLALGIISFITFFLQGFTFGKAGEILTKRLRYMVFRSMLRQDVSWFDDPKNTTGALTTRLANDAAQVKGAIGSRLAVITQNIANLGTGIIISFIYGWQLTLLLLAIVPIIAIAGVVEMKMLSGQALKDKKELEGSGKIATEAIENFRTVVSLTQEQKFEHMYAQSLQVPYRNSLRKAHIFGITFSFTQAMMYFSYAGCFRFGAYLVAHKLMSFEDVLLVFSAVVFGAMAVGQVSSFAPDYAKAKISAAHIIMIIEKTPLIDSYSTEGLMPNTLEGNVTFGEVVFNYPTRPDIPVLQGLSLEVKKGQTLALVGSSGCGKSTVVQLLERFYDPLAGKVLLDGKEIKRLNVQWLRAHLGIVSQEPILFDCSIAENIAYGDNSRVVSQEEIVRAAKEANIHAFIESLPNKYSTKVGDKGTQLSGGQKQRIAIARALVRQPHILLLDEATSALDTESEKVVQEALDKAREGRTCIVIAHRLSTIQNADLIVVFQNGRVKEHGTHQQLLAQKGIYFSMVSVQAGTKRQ

Structure (SMILES) | Ki [1] | Ki [2] | also measured
CC(C)C[C@H]1C(=O)N2CCC[C@H]2[C@]2(O)O[C@](NC(=O)[C@@H]3C=C4c5cccc6[nH]c(Br)c(c56)C[C@H]4N(C)C3)(C(C)C)C(=O)N12 [BROMOCRIPTINE] | 7.48 µM | 6.39 µM | –
Clc1ccccc1C(c1ccccc1)(c1ccccc1)n1ccnc1 [CLOTRIMAZOLE] | 18.3 µM | 25.1 µM | –
CC(C)[C@@]1(NC(=O)[C@@H]2C[C@@H]3c4cccc5[nH]cc(c45)C[C@H]3N(C)C2)O[C@@]2(O)[C@@H]3CCCN3C(=O)[C@H](Cc3ccccc3)N2C1=O [DIHYDROERGOCRISTINE] | 111 µM | 167 µM | Activity [3]: substrate [+]
CC(C)C[C@H]1C(=O)N2CCC[C@H]2[C@]2(O)O[C@](NC(=O)[C@@H]3C[C@@H]4c5cccc6[nH]cc(c56)C[C@H]4N(C)C3)(C(C)C)C(=O)N12 [DIHYDROERGOCRYPTINE] | 333 µM | 160 µM | Activity [4]: substrate [+]; Activity [5]: substrate [+]
CN1C[C@H](C(=O)N[C@]2(C)O[C@@]3(O)[C@@H]4CCCN4C(=O)[C@H](Cc4ccccc4)N3C2=O)C[C@@H]2c3cccc4[nH]cc(c34)C[C@H]21 [DIHYDROERGOTAMINE] | > 1000 µM | > 1000 µM | –
CC(C)[C@H]1C(=O)N2CCC[C@H]2[C@]2(O)O[C@](NC(=O)[C@@H]3C=C4c5cccc6[nH]cc(c56)C[C@H]4N(C)C3)(C(C)C)C(=O)N12 [ERGOCORNINE] | 272 µM | 19.1 µM | –
CC(C)[C@@]1(NC(=O)[C@@H]2C=C3c4cccc5[nH]cc(c45)C[C@H]3N(C)C2)O[C@@]2(O)[C@@H]3CCCN3C(=O)[C@H](Cc3ccccc3)N2C1=O [ERGOCRISTINE] | 39.4 µM | 15.3 µM | –
CC(C)C[C@H]1C(=O)N2CCC[C@H]2[C@]2(O)O[C@](NC(=O)[C@@H]3C=C4c5cccc6[nH]cc(c56)C[C@H]4N(C)C3)(C(C)C)C(=O)N12 [ERGOCRYPTINE] | 43.5 µM | 26.9 µM | –
C[C@@H](CO)NC(=O)[C@@H]1C=C2c3cccc4[nH]cc(c34)C[C@H]2N(C)C1 [ERGONOVINE] | 118 µM | > 1000 µM | –
CN1C[C@H](C(=O)N[C@]2(C)O[C@@]3(O)[C@@H]4CCCN4C(=O)[C@H](Cc4ccccc4)N3C2=O)C=C2c3cccc4[nH]cc(c34)C[C@H]21 [ERGOTAMINE] | 189 µM | 18 µM | –
CC[C@H]1OC(=O)[C@H](C)[C@@H](O[C@H]2C[C@@](C)(OC)[C@@H](O)[C@H](C)O2)[C@H](C)[C@@H](O[C@@H]2O[C@H](C)C[C@H](N(C)C)[C@H]2O)[C@](C)(O)C[C@@H](C)C(=O)[C@H](C)[C@@H](O)[C@]1(C)O [ERYTHROMYCIN] | > 1000 µM | – | –
OC(Cn1cncn1)(Cn1cncn1)c1ccc(F)cc1F [FLUCONAZOLE] | > 1000 µM | > 1000 µM | Activity [3]: is not a substrate [-]; Activity [6]: is not a substrate [-]; Activity [5]: substrate [+]
Clc1ccc(COC(Cn2ccnc2)c2ccc(Cl)cc2Cl)c(Cl)c1 (stereo not given) [MICONAZOLE] | 22.2 µM | – | –
COC(=O)[C@H]1[C@H]2C[C@@H]3c4[nH]c5cc(OC)ccc5c4CCN3C[C@H]2C[C@@H](OC(=O)c2cc(OC)c(OC)c(OC)c2)[C@@H]1OC [RESERPINE] | 4.03 µM | 17.9 µM | Activity [4]: substrate [+]; Activity [7]: substrate [+]; Activity [8]: substrate [+]; Activity [9]: substrate [+]; Activity [10]: substrate [+]; Activity [5]: substrate [+]
CO[C@H]1C[C@H](O[C@H]2[C@H](C)[C@@H](O[C@@H]3O[C@H](C)C[C@H](N(C)C)[C@H]3OC(C)=O)[C@@H](C)C[C@@]3(CO3)C(=O)[C@H](C)[C@@H](OC(C)=O)[C@@H](C)[C@@H](C)OC(=O)[C@@H]2C)O[C@@H](C)[C@@H]1OC(C)=O [TROLEANDOMYCIN] | 217 µM | > 1000 µM | –
